Results reported in PubChem BioAssay (NCI).
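A five-concentration, 48-hour dose response in 96-well plates underlies each endpoint, interpolated linearly between surrounding concentrations. TGI marks complete inhibition of growth.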

What was measured:
Experiment in all cases: growth of human tumour cells (NCI), 48 h
PC-3 prostate = tested on: PC-3 prostate
NCI-H460 lung = tested on: NCI-H460 lung
HOP-92 NSCLC = tested on: HOP-92 NSCLC
RXF 393 renal = tested on: RXF 393 renal
786-0 renal = tested on: 786-0 renal
HT29 colon = tested on: HT29 colon
SK-MEL-5 melanoma = tested on: SK-MEL-5 melanoma
UO-31 renal = tested on: UO-31 renal
RPMI-8226 leukemia = tested on: RPMI-8226 leukemia
OVCAR-8 ovarian = tested on: OVCAR-8 ovarian
HL-60(TB) leukemia = tested on: HL-60(TB) leukemia
UACC-62 melanoma = tested on: UACC-62 melanoma
BT-549 breast = tested on: BT-549 breast
OVCAR-5 ovarian = tested on: OVCAR-5 ovarian

| SMILES | TGI (PC-3 prostate) [µM] | TGI (NCI-H460 lung) [µM] | TGI (HOP-92 NSCLC) [µM] | TGI (RXF 393 renal) [µM] | TGI (786-0 renal) [µM] | TGI (HT29 colon) [µM] | TGI (SK-MEL-5 melanoma) [µM] | TGI (UO-31 renal) [µM] | TGI (RPMI-8226 leukemia) [µM] | TGI (OVCAR-8 ovarian) [µM] | TGI (HL-60(TB) leukemia) [µM] | TGI (UACC-62 melanoma) [µM] | TGI (BT-549 breast) [µM] | TGI (OVCAR-5 ovarian) [µM] |
| --- | --- | --- | --- | --- | --- | --- | --- | --- | --- | --- | --- | --- | --- | --- |
| CC1(C)Cc2c(sc3[nH]c(=S)[nH]c(=S)c23)CS1 | > 100 | > 100 | 50.4 | > 100 | > 100 | > 100 | > 100 | > 100 | 68.5 | > 100 | 92.7 | 67.4 | > 100 |  |
| C/C=C/c1cc2c(cc1O)CC[C@@H]1[C@@H]2CC[C@]2(C)[C@@H](O)CC[C@@H]12 | 23 | 14.3 |  | 1.3 | 13.8 | 20.4 | 14.2 | 18.5 | > 82.6 | 18.1 |  | 15.4 | 22.8 | 25.4 |
| C=C1N(S(=O)(=O)c2ccc(C)cc2)C(=O)OCC12CCCC2 | > 100 | > 100 | > 100 | > 100 | > 100 | > 100 | 94.6 | > 100 | > 100 | > 100 | > 100 | > 100 | > 100 | > 100 |
| CCOP(=O)(C/C=C/Cn1ncc(=O)[nH]c1=O)OCC | > 100 | > 100 | > 100 | > 100 |  | > 100 | > 100 | > 100 | > 100 | > 100 | > 100 |  | > 100 | > 100 |
| CSc1c(C#N)c(=O)n(N)c2c1c(C)nn2-c1ccccc1 | 76.7 | > 100 |  | 69.1 | > 100 | 65.4 | 28.7 | 51.9 | 63.9 | 54 | 94.5 | 75.8 | > 100 | > 100 |
| O=C1Nc2ccc(Br)cc2/C1=N/S(=O)(=O)O | 83.3 | > 100 | > 100 | > 100 | 68.2 | > 100 | 29.6 | > 100 | 47.6 | > 100 | 46.7 | 40.3 | > 100 | 79.3 |
| COC(=O)[C@@H]1C[C@@H](O)CN1C(=O)c1ccc([N+](=O)[O-])cc1[N+](=O)[O-] | > 100 | > 100 | > 100 | > 100 | > 100 | > 100 | > 100 | > 100 | > 100 | > 100 | > 100 | > 100 | > 100 | > 100 |
| c1ccc2sc(SSSc3nc4ccccc4s3)nc2c1 | > 100 | > 100 | > 100 | > 100 | > 100 | > 100 | > 100 | > 100 | > 100 | > 100 | > 100 | > 100 | > 100 | > 100 |
| C=C1CC[C@@H]2C13[C@@H]1[C@H](CC(=O)[C@@]23C)C1(C)C (stereo not given in full) | > 100 | > 100 | > 100 | > 100 | > 100 | > 100 | > 100 | > 100 | > 100 | > 100 | > 100 | > 100 | > 100 | > 100 |
| O=c1[nH]c2c(c(=O)[nH]1)SC(c1ccccc1)C2 (stereo not given) | > 100 | > 100 | > 100 | > 100 | > 100 | > 100 | > 100 | > 100 | > 100 | > 100 | > 100 |  | > 100 | > 100 |
| Cc1cc(C)c(NS(=O)c2cccc(C(F)(F)F)c2)c(C)c1 (stereo not given) | > 100 | > 100 | > 100 | > 100 | > 100 | > 100 |  | > 100 | > 100 | > 100 | > 100 |  | > 100 | > 100 |
| CCOC(=O)[C@@H]1[C@@H](c2ccccc2)N(C)O[C@@]1(c1ccccc1)C(F)(F)F | > 100 |  | > 100 | > 100 | > 100 | > 100 | 72.3 | > 100 | > 100 | > 100 |  | > 100 | > 100 | > 100 |
| CC(C)(C)OC(=O)N(O)[C@@H]1CC[C@H](n2cnc3c(N)ncnc32)C1 | > 100 | > 100 | > 100 | > 100 | > 100 | > 100 | > 100 | > 100 | > 100 | > 100 |  | > 100 | > 100 | > 100 |
| O=Cc1ccc2ccocc1-2 | > 100 | > 100 | > 100 | > 100 | > 100 | > 100 | > 100 | > 100 | > 100 | > 100 | > 100 | > 100 | > 100 | > 100 |
| CN(C)c1ccc(C=Nc2ccc(-c3nc4ccccc4s3)cc2)cc1 | 71.5 | 93.2 | 59.4 | 52.2 | 42.8 | > 100 | 44.8 | > 100 | > 100 | > 100 | 0.525 | 31.7 | > 100 | > 100 |
| CCO/C(O)=C(/C(=N)N1CCOCC1)C(=O)NC(C)C | > 100 | > 100 | > 100 | > 100 | > 100 | > 100 |  |  | > 100 | > 100 | > 100 | > 100 | > 100 | > 100 |
